Here are results for 5 compounds from article PMC8621770, “New Compounds with Bioisosteric Replacement of Classic Choline Kinase Inhibitors Show Potent Antiplasmodial Activity” (Pharmaceutics, 2021).

Like-named read-outs stand apart in the source and are kept apart here.

The subject of data set [1] is P. falciparum strain 3D7. Set-up: method as in PMID 27616047, PMID 29880399, PMID 25089811. The following applies: reference compounds; read-out: IC50 a (In vitro IC50 values against P. falciparum); cited from earlier work.
Data set [2] concerns the target T1, PfCK (Plasmodium falciparum, UniProt Q8IM71).
T1 construct: A truncated form of PfCK (Δ79-440) featuring an N-terminal 6× His-tag; 6xHis (N); host or cells: Escherichia coli BL21 (DE3) Star
Conditions: reference compounds, cited from earlier work; for inhibition of PfCK depending on substrate (in words): choline kinase or ethanolamine kinase activity; for IC50: read-out: IC50 PfCK b (compound concentration required to inhibit PfCK enzyme by 50%).

The subject of data set [3] is P. falciparum strain 3D7. Put plainly: Antimalarial activity, P. falciparum lactate dehydrogenase growth inhibition assay. The following applies: Plasmodium falciparum, Erythrocyte; P. falciparum 3D7 in human erythrocytes, 72 h, LDH readout; read-out: IC50 a (In vitro IC50 values against P. falciparum). Format: cell-based, Plasmodium falciparum.
In data set [4] the target is T1, PfCK. Put plainly: Spectrophotometric coupled enzymatic assay for PfCK activity (substrate choline). Format: biochemical. Conditions: read-out: PfCK Fractional Activity at 25 µM.
The nature of data set [5]: Aggregation of compound solutions for the enzymatic assays. Format: physicochemical. Conditions: even at 5 mM concentration. The text has this:
As a result, it was difficult to measure their exact concentration, which is crucial for enzymatic assays.

T1 sequence (Q8IM71 entry or part of it): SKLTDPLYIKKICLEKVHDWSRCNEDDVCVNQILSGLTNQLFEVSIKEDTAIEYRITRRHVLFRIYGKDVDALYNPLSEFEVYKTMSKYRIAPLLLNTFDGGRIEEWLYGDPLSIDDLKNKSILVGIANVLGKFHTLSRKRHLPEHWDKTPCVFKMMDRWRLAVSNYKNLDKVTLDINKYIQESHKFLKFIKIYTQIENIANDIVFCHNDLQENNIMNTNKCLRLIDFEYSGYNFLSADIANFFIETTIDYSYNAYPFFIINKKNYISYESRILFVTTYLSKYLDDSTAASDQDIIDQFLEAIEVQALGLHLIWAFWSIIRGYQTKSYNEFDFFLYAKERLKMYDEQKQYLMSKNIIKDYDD

For `CN(C)c1cc[n+](Cc2ccc(-c3ccc(C[n+]4ccc(N5CCCC5)cc4)cc3)cc2)cc1` [BR-23], the IC50 in data set [1] was 3 ± 0.2 nM; in data set [2] it was 276000 nM. In data set [2], the “inhibition of PfCK depending on substrate (in words)” value is reported as “only had inhibitory activity when the enzyme-substrate was ethanolamine”.

For `CN(C)c1cc[n+](Cc2ccc(CCCCc3ccc(C[n+]4ccc(N5CCCC5)cc4)cc3)cc2)cc1` [BR-25], the IC50 in data set [1] was 2 ± 0.3 nM. Further, in data set [2], the “inhibition of PfCK depending on substrate (in words)” value is given as “only had inhibitory activity when the enzyme-substrate was ethanolamine” and the IC50 is 103000 nM.

`[Br-].c1ccc(-c2ccc(C[n+]3cnc(N4CCCC4)c4sccc43)cc2)cc1` [Fa-M1, 1-([1,1’-biphenyl]-4-ylmethyl)-4-(pyrrolidin-1-yl)thieno[3,2-d]pyrimidin-1-ium bromide] yielded a melting point of 295 to 298 °C. For the same compound, the IC50 in data set [3] was 41 nM. In data set [4], the remaining activity at 25 µM came to 54.6 ± 11.7%. For the same compound, the aggregation entry in data set [5] is on record as “severe aggregation”.

Regarding `[Br-].c1ccc(-c2ccc(C[n+]3ccc(N4CCCC4)c4sccc43)cc2)cc1` [Fa-M2, 4-([1,1’-biphenyl]-4-ylmethyl)-7-(pyrrolidin-1-yl)thieno[3,2-b]pyridin-4-ium bromide], the melting point lay within 271 to 273 °C. For the same compound, the IC50 in data set [3] came to 48.9 nM. The remaining activity at 25 µM in data set [4] turned out to be 101 ± 13.7%. The aggregation result in data set [5] is “severe aggregation”.

In the case of `[Br-].c1ccc(-c2ccc(C[n+]3cnc(N4CCCC4)c4ccsc43)cc2)cc1` [Fa-M3, 1-([1,1’-biphenyl]-4-ylmethyl)-4-(pyrrolidin-1-yl)thieno[2,3-d]pyrimidin-1-ium bromide], the melting point fell in the range of 275 to 278 °C. In data set [3], the IC50 came to 35.1 nM. In addition, the remaining activity at 25 µM in data set [4] was 96.9 ± 18.7%. Moreover, in data set [5], the aggregation entry is given as “severe aggregation”.
